Results from BindingDB's records for doi:10.1016/s0960-894x(00)00026-3 (Universit&#224, 2000).

Test: Inhibition of Clostridium histolyticum collagenase using a linear regression program

Structure (SMILES) | Ki [µM]
CC(C(=O)NO)N(Cc1ccc([N+](=O)[O-])cc1)S(=O)(=O)C(F)(F)C(F)(F)C(F)(F)C(F)(F)F (stereo not given) [2-(N-(4-nitrobenzyl)-2,2,12,12,15,15,18,18,18-nonafluorobutan-2-ylsulfonamido)-N-hydroxypropanamide] | 11
CC(C(=O)NO)N(Cc1ccc([N+](=O)[O-])cc1)C(=O)Nc1ccc(F)cc1F (stereo not given) [2-[3-(2,4-Difluoro-phenyl)-1-(4-nitro-benzyl)-ureido]-N-hydroxy-propionamide] | 15
CC(C(=O)O)N(Cc1ccc([N+](=O)[O-])cc1)C(=O)Nc1ccc(F)cc1F (stereo not given) [2-[3-(2,4-Difluoro-phenyl)-1-(4-nitro-benzyl)-ureido]-propionic acid] | 6.2
CC(C(=O)NO)N(Cc1ccc([N+](=O)[O-])cc1)C(=O)Nc1ccc(Cl)c(Cl)c1 (stereo not given) [2-[3-(3,4-Dichloro-phenyl)-1-(4-nitro-benzyl)-ureido]-N-hydroxy-propionamide] | 13
CC(C(=O)O)N(Cc1ccc([N+](=O)[O-])cc1)C(=O)Nc1ccc(Cl)c(Cl)c1 (stereo not given) [2-[3-(3,4-Dichloro-phenyl)-1-(4-nitro-benzyl)-ureido]-propionic acid] | 5
CC(C(=O)NO)N(Cc1ccc([N+](=O)[O-])cc1)C(=O)Nc1cccc(Cl)c1 (stereo not given) [2-[3-(3-Chloro-phenyl)-1-(4-nitro-benzyl)-ureido]-N-hydroxy-propionamide] | 14
CC(C(=O)O)N(Cc1ccc([N+](=O)[O-])cc1)C(=O)Nc1cccc(Cl)c1 (stereo not given) [2-[3-(3-Chloro-phenyl)-1-(4-nitro-benzyl)-ureido]-propionic acid] | 6.1
CC(C(=O)NO)N(Cc1ccc([N+](=O)[O-])cc1)C(=O)Nc1ccc(Cl)cc1 (stereo not given) [2-[3-(4-Chloro-phenyl)-1-(4-nitro-benzyl)-ureido]-N-hydroxy-propionamide] | 18
CC(C(=O)O)N(Cc1ccc([N+](=O)[O-])cc1)C(=O)Nc1ccc(Cl)cc1 (stereo not given) [2-[3-(4-Chloro-phenyl)-1-(4-nitro-benzyl)-ureido]-propionic acid] | 6.5
CC(C(=O)NO)N(Cc1ccc([N+](=O)[O-])cc1)C(=O)Nc1ccc(F)cc1 (stereo not given) [2-[3-(4-Fluoro-phenyl)-1-(4-nitro-benzyl)-ureido]-N-hydroxy-propionamide] | 12
CC(C(=O)O)N(Cc1ccc([N+](=O)[O-])cc1)C(=O)Nc1ccc(F)cc1 (stereo not given) [2-[3-(4-Fluoro-phenyl)-1-(4-nitro-benzyl)-ureido]-propionic acid] | 5.4
CC(C(=O)NO)N(Cc1ccc([N+](=O)[O-])cc1)C(=S)NC(=O)c1ccccc1 (stereo not given) [2-[3-Benzoyl-1-(4-nitro-benzyl)-thioureido]-N-hydroxy-propionamide] | 6
CC(C(=O)O)N(Cc1ccc([N+](=O)[O-])cc1)C(=S)NC(=O)c1ccccc1 (stereo not given) [2-[3-Benzoyl-1-(4-nitro-benzyl)-thioureido]-propionic acid] | 0.9
CC(C(=O)O)N(Cc1ccc([N+](=O)[O-])cc1)C(=O)Nc1cccc2ccccc12 (stereo not given) [2-[3-Naphthalen-1-yl-1-(4-nitro-benzyl)-ureido]-propionic acid] | 4.6
CC(C(=O)NO)N(Cc1ccc([N+](=O)[O-])cc1)Sc1ccc([N+](=O)[O-])cc1[N+](=O)[O-] (stereo not given) [2-[(2,4-Dinitro-phenylsulfanyl)-(4-nitro-benzyl)-amino]-N-hydroxy-propionamide] | 9
CC(C(=O)O)N(Cc1ccc([N+](=O)[O-])cc1)Sc1ccc([N+](=O)[O-])cc1[N+](=O)[O-] (stereo not given) [2-[(2,4-Dinitro-phenylsulfanyl)-(4-nitro-benzyl)-amino]-propionic acid] | 5.1
CC(C(=O)NO)N(Cc1ccc([N+](=O)[O-])cc1)S(=O)(=O)c1cc(Cl)ccc1Cl (stereo not given) [2-[(2,5-Dichloro-benzenesulfonyl)-(4-nitro-benzyl)-amino]-N-hydroxy-propionamide] | 13
CC(C(=O)O)N(Cc1ccc([N+](=O)[O-])cc1)S(=O)(=O)c1cc(Cl)ccc1Cl (stereo not given) [2-[(2,5-Dichloro-benzenesulfonyl)-(4-nitro-benzyl)-amino]-propionic acid] | 3.6
CC(C(=O)O)N(Cc1ccc([N+](=O)[O-])cc1)S(=O)(=O)c1ccccc1[N+](=O)[O-] (stereo not given) [2-[(2-Nitro-benzenesulfonyl)-(4-nitro-benzyl)-amino]-propionic acid] | 4.8
CC(C(=O)NO)N(Cc1ccc([N+](=O)[O-])cc1)S(=O)(=O)c1cc(Cl)cc(Cl)c1O (stereo not given) [2-[(3,5-Dichloro-2-hydroxy-benzenesulfonyl)-(4-nitro-benzyl)-amino]-N-hydroxy-propionamide] | 12
CC(C(=O)O)N(Cc1ccc([N+](=O)[O-])cc1)S(=O)(=O)c1cc(Cl)cc(Cl)c1O (stereo not given) [2-[(3,5-Dichloro-2-hydroxy-benzenesulfonyl)-(4-nitro-benzyl)-amino]-propionic acid] | 2.5
CC(C(=O)O)N(Cc1ccc([N+](=O)[O-])cc1)S(=O)(=O)c1ccc([N+](=O)[O-])c(Cl)c1 (stereo not given) [2-[(3-Chloro-4-nitro-benzenesulfonyl)-(4-nitro-benzyl)-amino]-propionic acid] | 3.3
CC(C(=O)O)N(Cc1ccc([N+](=O)[O-])cc1)S(=O)(=O)c1cccc([N+](=O)[O-])c1 (stereo not given) [2-[(3-Nitro-benzenesulfonyl)-(4-nitro-benzyl)-amino]-propionic acid] | 5.5

Structure (SMILES) | Ki [µM]
COc1ccc(S(=O)(=O)N(Cc2ccc([N+](=O)[O-])cc2)C(C)C(=O)O)cc1NC(=O)OC(C)(C)C (stereo not given) [2-[(3-tert-Butoxycarbonylamino-4-methoxy-benzenesulfonyl)-(4-nitro-benzyl)-amino]-propionic acid] | 2.1
CC(C(=O)O)N(Cc1ccc([N+](=O)[O-])cc1)S(=O)(=O)c1cccc(NC(=O)OC(C)(C)C)c1 (stereo not given) [2-[(3-tert-Butoxycarbonylamino-benzenesulfonyl)-(4-nitro-benzyl)-amino]-propionic acid] | 2.6
CC(=O)c1ccc(S(=O)(=O)N(Cc2ccc([N+](=O)[O-])cc2)C(C)C(=O)NO)cc1 (stereo not given) [2-[(4-Acetyl-benzenesulfonyl)-(4-nitro-benzyl)-amino]-N-hydroxy-propionamide] | 9
CC(=O)c1ccc(S(=O)(=O)N(Cc2ccc([N+](=O)[O-])cc2)C(C)C(=O)O)cc1 (stereo not given) [2-[(4-Acetyl-benzenesulfonyl)-(4-nitro-benzyl)-amino]-propionic acid] | 2.1
CC(=O)Nc1ccc(S(=O)(=O)N(Cc2ccc([N+](=O)[O-])cc2)C(C)C(=O)NO)cc1 (stereo not given) [2-[(4-Acetylamino-benzenesulfonyl)-(4-nitro-benzyl)-amino]-N-hydroxy-propionamide] | 11
CC(=O)Nc1ccc(S(=O)(=O)N(Cc2ccc([N+](=O)[O-])cc2)C(C)C(=O)O)cc1 (stereo not given) [2-[(4-Acetylamino-benzenesulfonyl)-(4-nitro-benzyl)-amino]-propionic acid] | 3.1
CC(C(=O)NO)N(Cc1ccc([N+](=O)[O-])cc1)S(=O)(=O)c1ccc(Br)cc1 (stereo not given) [2-[(4-Bromo-benzenesulfonyl)-(4-nitro-benzyl)-amino]-N-hydroxy-propionamide] | 30
CC(C(=O)O)N(Cc1ccc([N+](=O)[O-])cc1)S(=O)(=O)c1ccc(Br)cc1 (stereo not given) [2-[(4-Bromo-benzenesulfonyl)-(4-nitro-benzyl)-amino]-propionic acid] | 10
CC(C(=O)NO)N(Cc1ccc([N+](=O)[O-])cc1)S(=O)(=O)c1ccc(Cl)cc1 (stereo not given) [2-[(4-Chloro-benzenesulfonyl)-(4-nitro-benzyl)-amino]-N-hydroxy-propionamide] | 32
CC(C(=O)O)N(Cc1ccc([N+](=O)[O-])cc1)S(=O)(=O)c1ccc(Cl)cc1 (stereo not given) [2-[(4-Chloro-benzenesulfonyl)-(4-nitro-benzyl)-amino]-propionic acid] | 9
CC(C(=O)NO)N(Cc1ccc([N+](=O)[O-])cc1)S(=O)(=O)c1ccc(F)cc1 (stereo not given) [2-[(4-Fluoro-benzenesulfonyl)-(4-nitro-benzyl)-amino]-N-hydroxy-propionamide] | 35
CC(C(=O)O)N(Cc1ccc([N+](=O)[O-])cc1)S(=O)(=O)c1ccc(F)cc1 (stereo not given) [2-[(4-Fluoro-benzenesulfonyl)-(4-nitro-benzyl)-amino]-propionic acid] | 10
CC(C(=O)O)N(Cc1ccc([N+](=O)[O-])cc1)S(=O)(=O)c1ccc(I)cc1 (stereo not given) [2-[(4-Iodo-benzenesulfonyl)-(4-nitro-benzyl)-amino]-propionic acid] | 12
COc1ccc(S(=O)(=O)N(Cc2ccc([N+](=O)[O-])cc2)C(C)C(=O)O)cc1 (stereo not given) [2-[(4-Methoxy-benzenesulfonyl)-(4-nitro-benzyl)-amino]-propionic acid] | 5.2
CC(C(=O)O)N(Cc1ccc([N+](=O)[O-])cc1)S(=O)(=O)c1ccc([N+](=O)[O-])cc1 (stereo not given) [2-[(4-Nitro-benzenesulfonyl)-(4-nitro-benzyl)-amino]-propionic acid] | 5.3
Cc1cc(C)c(S(=O)(=O)N(Cc2ccc([N+](=O)[O-])cc2)C(C)C(=O)O)c(C)c1 (stereo not given) [2-[(4-Nitro-benzyl)-(2,4,6-trimethyl-benzenesulfonyl)-amino]-propionic acid] | 6
CC(C(=O)O)N(Cc1ccc([N+](=O)[O-])cc1)Sc1ccccc1[N+](=O)[O-] (stereo not given) [2-[(4-Nitro-benzyl)-(2-nitro-phenylsulfanyl)-amino]-propionic acid] | 6.3
CC(C(=O)O)N(Cc1ccc([N+](=O)[O-])cc1)S(=O)(=O)c1cccc(C(F)(F)F)c1 (stereo not given) [2-[(4-Nitro-benzyl)-(3-trifluoromethyl-benzenesulfonyl)-amino]-propionic acid] | 0.3
CC(C(=O)O)N(Cc1ccc([N+](=O)[O-])cc1)Sc1ccc([N+](=O)[O-])cc1 (stereo not given) [2-[(4-Nitro-benzyl)-(4-nitro-phenylsulfanyl)-amino]-propionic acid] | 5.5
CC(C(=O)O)N(Cc1ccc([N+](=O)[O-])cc1)S(=O)(=O)C(F)(F)C(F)(F)C(F)(F)C(F)(F)F (stereo not given) [2-[(4-Nitro-benzyl)-(nonafluorobutane-1-sulfonyl)-amino]-propionic acid] | 2.3
CC(C(=O)O)N(Cc1ccc([N+](=O)[O-])cc1)S(=O)(=O)c1cccc2cccnc12 (stereo not given) [2-[(4-Nitro-benzyl)-(quinoline-8-sulfonyl)-amino]-propionic acid] | 1.2
CC(C(=O)O)N(Cc1ccc([N+](=O)[O-])cc1)S(=O)(=O)c1cccs1 (stereo not given) [2-[(4-Nitro-benzyl)-(thiophene-2-sulfonyl)-amino]-propionic acid] | 2.1
